Test results as given in patent US11542239B2, “Elagolix sodium compositions and processes” (AbbVie Inc., priority 2018, dated 2023).

Key:
Format in all cases: physicochemical
[1] = Bulk density in a graduated cylinder; settings: isolated amorphous elagolix sodium powder
Description: The bulk density of the sample was obtained by measurement in a graduated cylinder. A 50 mL graduated cylinder (readable to 1 mL) was used in all measurement. First, the tared weight of the cylinder was obtained with a balance (readable to ±0.01 g). Sufficient amount of sample was then transferred into the cylinder, gently to avoid compaction of the sample, to a volume between 30 and 50 mL. The total weight of the sample and cylinder was then measured with the balance (readable to ±0.01 g), and the net sample weight was calculated. The bulk density is the weight of the sample divided by the apparent volume (to the nearest graduated unit).

[2] = BET specific surface area from nitrogen adsorption isotherm; settings: isolated amorphous elagolix sodium powder, precipitation/isolation conditions vary per example
Description: The BET (Brunauer, Emmett and Teller) specific surface area was determined from nitrogen adsorption isotherm at 77° K using a surface area analyzer (Tristar 3020, Micromeritics, Norcross, Ga.). A sample of approximately 1-2 g was first outgassed under vacuum for 2 hours at 50° C. prior to nitrogen adsorption experiment. The multipoint measurement method was used according to USP <846>. The quantity adsorbed was measured between 0.05 and 0.3 relative pressure. A minimum of 5 data points between this pressure range was determined to obtain the specific surface area using the BET equation.

[3] = Flow properties, Schulze ring shear tester (flow function coefficient); settings: isolated amorphous elagolix sodium powder, ffc=σ/fc
Description: Flow properties of each sample were characterized using a Schulze ring shear tester RST-XS (Dietmar Schulze Schuttgutmesstechnik, Wolfenbiittel, Germany). A standard annular cell of a cross-sectional area of 24 cm^2 and a volume of 30 cm^3 is used to measure the yield loci. All experiments were performed under ambient conditions immediately after the sample was removed from the sample container. During each measurement, the powder sample was first pre-sheared under a pre-consolidation stress of 1 kPa until a steady-state was reached. The pre-sheared powder was then subjected to shear under four normal stress levels of […] to obtain the yield locus (plot of shear stress at failure as a function of the normal stress). Between each shear points, the sample was pre-consolidated at 1 kPa. From the yield locus, the major principle stress (σ) and unconfined yield strength (fc) were derived by drawing two critical Mohr stress circles with the software RST-CONTROL 95 (Dietmar Schulze Schuttgiit-messtechnik, Wolfenbiittel, Germany). The major principle stress (σ) was obtained from the Mohr stress circle which is tangential to the yield locus and intersects at the point of normal and shear stresses at steady state flow. The unconfined yield strength (fc) was obtained from the Mohr stress circle which is tangential to the yield locus and runs through the origin. Flow function coefficient (ffc=σ/fc) was used to characterize the flow of the powder sample.

[4] = Dry glass transition temperature of amorphous form
[5] = Particle size distribution by laser diffraction (wet dispersion); settings: isolated amorphous elagolix sodium powder
Description: Particle size distribution was measured by laser diffraction using a Malvern Mastersizer 2000S (Malvern Panalytical Ltd., Malvern, United Kingdom) in the wet dispersion mode. The liquid dispersion accessory was first filled with a solution of 0.025% w/v lecithin in HPLC n-heptane. After laser background intensity was measured, approximately 40 mg of sample was added directly to the liquid dispersion accessory to obtain a target laser obscuration between 5 and 22%. Particle size distribution measurement was started immediately upon addition of the sample. The following method parameters were used: Calculation theory—Mie; Measurement model—general purpose; Measurement sensitivity—normal; Dispersant refractive index—1.39; Background time—30 s; Measurement time—30 s; Stirrer speed—1500 rpm; Measurement cycle—1.

bulk density ([1]; listed as Example 17): 0.17 g/mL
bulk density ([1]; listed as Example 18): 0.33 g/mL
specific surface area ([2]; listed as Example 14): 10.4 m^2/g
specific surface area ([2]; listed as Example 15): 49.0 m^2/g
specific surface area ([2]; listed as Example 16): 0.3 m^2/g
specific surface area ([2]; listed as Example 17): 35.3 m^2/g
specific surface area ([2]; listed as Example 18): 32.2 m^2/g
flow function coefficient (ffc) ([3]; listed as Example 14): 1.8
flow function coefficient (ffc) ([3]; listed as Example 15): 2.8
flow function coefficient (ffc) ([3]; listed as Example 17): 1.2
flow function coefficient (ffc) ([3]; listed as Example 18): 6.8
dry glass transition temperature (Tg) [4]: about 108 °C
volume-averaged particle size Dv10 ([5]; listed as Example 14): 9 μm
volume-averaged particle size Dv10 ([5]; listed as Example 15): 17 μm
volume-averaged particle size Dv10 ([5]; listed as Example 17): 6 μm
volume-averaged particle size Dv10 ([5]; listed as Example 18): 204 μm
Structure (SMILES): COc1cccc(-c2c(C)n(Cc3c(F)cccc3C(F)(F)F)c(=O)n(C[C@H](NCCCC(=O)[O-])c3ccccc3)c2=O)c1F.[Na+] [Compound (I), sodium 4-({(1R)-2-[5-(2-fluoro-3-methoxyphenyl)-3-{[2-fluoro-6-(trifluoromethyl)phenyl]methyl}-4-methyl-2,6-dioxo-3,6-dihydropyrimidin-1(2H)-yl]-1-phenylethyl}amino)butanoate]
